Measurements from US20260293949A1, “CARBONATION SENSATION IMPARTING OR ENHANCING AGENT” (TAKASAGO INTERNATIONAL CORPORATION, priority 2022, published 2026).
Entries after “also recorded” stand apart in the source; their conditions may differ.

How the values were obtained:
human TRPA1 = target: T1, human TRPA1 (Homo sapiens, UniProt O75762); experiment: Evaluation of human TRPA1 activity in stably expressing cells (Fluo 4-AM calcium fluorescence); assay type: cell-based; conditions: human TRPA1 stably expressing Flp-In 293 cells; fluorescence 485/525 nm, 27° C.
T1 construct: doxycycline-inducible Flp-In T-REx 293 cells; Fluo-4 calcium assay
Description: (§1) The full-length human TRPA1 gene (GenBank Accession Number: NM_007332) was amplified from plasmid pFN21AB7348 (manufactured by Kazusa DNA Research Institute), and the full-length human TRPV1 gene (GenBank Accession Number: NM_018727) was amplified from pFN21AE2418 (manufactured by Kazusa DNA Research Institute) using PCR. The obtained PCR product was subcloned into pcDNA5/FRT/TO (manufactured by ThermoFisher Scientific), and then introduced into Flp-In 293 cells (manufactured by Thermo Fisher Scientific) using a Flp-In T-REX system (manufactured by Thermo Fisher Scientific) to prepare a human TRPA1 stably expressing cell line and a human TRPV1 stably expressing cell line […]
(§2) After replacing the culture medium with buffer solution, fluorescent calcium indicator Fluo 4-AM (manufactured by Dojindo Laboratories) was added and incubated at 37° C. for 1 hour. After replacing the culture solution with buffer solution again, the microplate was set to a fluorescence microplate reader FlexStation 3 (manufactured by Molecular Devices, LLC.). Diethyl sebacate was added at various concentrations at an internal temperature of 27° C., and the fluorescence intensity at a wavelength of 525 nm when excited at a wavelength of 485 nm was measured. […]

human TRPV1 = target: T2, human TRPV1 (Homo sapiens, UniProt Q8NER1); experiment: Evaluation of human TRPV1 activity in stably expressing cells (Fluo 4-AM calcium fluorescence); assay type: cell-based; conditions: human TRPV1 stably expressing Flp-In 293 cells; fluorescence 485/525 nm, 27° C.
T2 construct: doxycycline-inducible Flp-In T-REx 293 cells; Fluo-4 calcium assay
Description: as §1, §2

[1] = Sensory evaluation of carbonation sensation imparting in cider-flavored frozen dessert; assay type: in vivo; conditions: for Carbonation sensation imparting evaluation result: average score of seven panelists, 1 to 5
Method: In the following Examples, the action and effect were verified using a value obtained by calculating an average score of scores for imparting or enhancing fizziness by sensory evaluation conducted by specialized panelists. The expression “1 point” in the evaluation is the evaluation in the case where no component is added at all (no addition).
Diethyl sebacate was separately added to a cider-flavored frozen dessert prepared according to the formulation shown in Table 16 so as to reach a concentration shown in Table 17 below, and sensory evaluation was performed by seven panelists to determine the extent to which fizziness was imparted as compared with a control in which diethyl sebacate was not added.

T1 sequence (O75762 whole entry): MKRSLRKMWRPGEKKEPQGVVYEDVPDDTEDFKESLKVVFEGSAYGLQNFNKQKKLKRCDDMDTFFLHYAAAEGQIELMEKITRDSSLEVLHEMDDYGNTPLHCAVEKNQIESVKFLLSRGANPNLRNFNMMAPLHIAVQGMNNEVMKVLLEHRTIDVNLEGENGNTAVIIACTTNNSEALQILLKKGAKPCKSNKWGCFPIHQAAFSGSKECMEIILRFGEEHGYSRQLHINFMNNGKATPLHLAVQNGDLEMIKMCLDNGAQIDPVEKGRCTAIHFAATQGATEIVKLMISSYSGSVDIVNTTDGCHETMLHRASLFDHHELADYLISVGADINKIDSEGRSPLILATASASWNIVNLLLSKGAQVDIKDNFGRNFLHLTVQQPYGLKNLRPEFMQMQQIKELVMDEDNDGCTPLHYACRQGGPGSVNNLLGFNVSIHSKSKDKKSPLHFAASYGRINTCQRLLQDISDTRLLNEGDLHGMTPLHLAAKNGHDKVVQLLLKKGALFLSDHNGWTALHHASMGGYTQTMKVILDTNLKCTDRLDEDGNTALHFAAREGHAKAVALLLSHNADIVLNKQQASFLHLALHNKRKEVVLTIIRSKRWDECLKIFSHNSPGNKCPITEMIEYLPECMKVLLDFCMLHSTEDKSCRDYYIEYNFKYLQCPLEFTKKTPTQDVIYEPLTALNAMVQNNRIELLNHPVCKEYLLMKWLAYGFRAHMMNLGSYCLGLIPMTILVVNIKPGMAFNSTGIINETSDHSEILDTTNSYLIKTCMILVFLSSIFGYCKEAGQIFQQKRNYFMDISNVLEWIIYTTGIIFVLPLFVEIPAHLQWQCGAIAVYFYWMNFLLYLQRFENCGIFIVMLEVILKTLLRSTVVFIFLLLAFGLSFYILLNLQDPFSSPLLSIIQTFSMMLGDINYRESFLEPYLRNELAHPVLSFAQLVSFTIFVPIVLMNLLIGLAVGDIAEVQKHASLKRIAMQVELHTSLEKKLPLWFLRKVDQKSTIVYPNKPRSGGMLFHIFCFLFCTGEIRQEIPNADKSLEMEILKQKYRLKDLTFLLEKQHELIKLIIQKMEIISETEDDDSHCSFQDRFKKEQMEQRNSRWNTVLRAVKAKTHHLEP
T2 sequence (Q8NER1 whole entry): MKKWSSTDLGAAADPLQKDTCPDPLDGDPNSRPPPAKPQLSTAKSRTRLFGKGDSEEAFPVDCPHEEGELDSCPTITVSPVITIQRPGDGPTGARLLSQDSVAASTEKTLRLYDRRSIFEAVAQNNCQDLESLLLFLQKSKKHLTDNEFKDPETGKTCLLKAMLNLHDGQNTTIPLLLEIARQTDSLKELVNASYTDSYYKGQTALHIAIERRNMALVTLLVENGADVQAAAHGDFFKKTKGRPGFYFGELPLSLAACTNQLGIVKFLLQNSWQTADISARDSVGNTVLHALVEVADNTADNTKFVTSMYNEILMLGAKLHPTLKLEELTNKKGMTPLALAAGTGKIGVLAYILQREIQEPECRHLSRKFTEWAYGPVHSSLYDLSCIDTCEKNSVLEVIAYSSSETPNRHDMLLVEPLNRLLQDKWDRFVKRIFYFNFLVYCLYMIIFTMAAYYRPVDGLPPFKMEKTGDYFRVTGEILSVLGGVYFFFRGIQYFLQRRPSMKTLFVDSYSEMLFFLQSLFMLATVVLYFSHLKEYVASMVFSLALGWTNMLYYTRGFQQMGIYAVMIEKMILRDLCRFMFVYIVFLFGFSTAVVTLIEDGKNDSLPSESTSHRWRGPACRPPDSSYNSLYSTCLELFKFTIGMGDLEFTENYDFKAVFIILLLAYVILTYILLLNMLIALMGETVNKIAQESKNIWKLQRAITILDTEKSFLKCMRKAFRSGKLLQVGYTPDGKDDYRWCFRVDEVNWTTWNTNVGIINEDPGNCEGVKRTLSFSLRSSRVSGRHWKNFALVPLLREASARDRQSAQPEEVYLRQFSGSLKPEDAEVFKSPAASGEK

CCOC(=O)CCCCCCCCC(=O)OCC [Diethyl sebacate, diethyl sebacate]
TRPA1 activity (human TRPA1): high TRPA1 activity; also recorded: respond
TRPV1 activity (human TRPV1): high TRPA1 activity and TRPV1 activity; also recorded: respond
amelioration of mouthfeel (in words) [1]: effect of ameliorating the mouthfeel was also confirmed
fizziness imparting (in words) [1]: fizziness can be imparted to the cider-flavored frozen dessert
Carbonation sensation imparting evaluation result ([1]; 0.1 ppm): 1.4 points
Carbonation sensation imparting evaluation result ([1]; 0.3 ppm): 1.9 points
Carbonation sensation imparting evaluation result ([1]; 1 ppm): 2.1 points
Carbonation sensation imparting evaluation result ([1]; 5 ppm): 3.6 points
Carbonation sensation imparting evaluation result ([1]; 10 ppm): 4.5 points
Carbonation sensation imparting evaluation result ([1]; 20 ppm): 3.6 points
Carbonation sensation imparting evaluation result ([1]; 50 ppm): 2.7 points
Carbonation sensation imparting evaluation result ([1]; 100 ppm): 1.4 points
